Test results: US9169254B2, “Spiroimidazolone derivative” (Chugai Seiyaku Kabushiki Kaisha, priority 2009, dated 2015)

target: T1, human PTH1 receptor (Homo sapiens, UniProt Q03431); assay: In vitro cAMP signal activity in HKRK-B7 cells (LLC-PK1 cells overexpressing the human PTH1 receptor); format: cell-based; conditions: HKRK-B7 cells; compound at 1×10^−3 M; cAMP produced as percentage of that produced by hPTH(1-34) at 100 nM
T1 sequence (Q03431 27-593): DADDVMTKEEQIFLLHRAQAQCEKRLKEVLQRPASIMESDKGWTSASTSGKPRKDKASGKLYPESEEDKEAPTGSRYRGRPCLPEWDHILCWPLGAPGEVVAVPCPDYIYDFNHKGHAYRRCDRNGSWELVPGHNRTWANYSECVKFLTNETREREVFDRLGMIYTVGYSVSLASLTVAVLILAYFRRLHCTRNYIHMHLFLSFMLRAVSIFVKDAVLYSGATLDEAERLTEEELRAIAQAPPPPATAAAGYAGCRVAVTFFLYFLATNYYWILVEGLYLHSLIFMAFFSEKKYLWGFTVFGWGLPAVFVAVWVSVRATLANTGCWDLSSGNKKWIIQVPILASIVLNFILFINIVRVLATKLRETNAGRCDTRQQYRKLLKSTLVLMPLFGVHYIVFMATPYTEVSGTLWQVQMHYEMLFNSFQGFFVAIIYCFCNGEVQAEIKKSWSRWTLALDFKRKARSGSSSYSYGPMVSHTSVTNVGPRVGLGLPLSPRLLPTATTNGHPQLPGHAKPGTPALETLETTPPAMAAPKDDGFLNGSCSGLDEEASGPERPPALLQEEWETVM

Structure (SMILES)	cAMP production activity (%)
CCCCCC[C@H]1CCCC[C@@H]1C1=NC2(CCN(S(=O)(=O)CCc3c(C)cc(N(C)C(N)=O)cc3C)CC2)C(=O)N1 [Compound 1057, 1-(4-{2-[2-((1S,2S)-2-hexyl-cyclohexyl)-4-oxo-1,3,8-triaza-spiro[4.5]dec-1-ene-8-sulfonyl]-ethyl}-3,5-dimethyl-phenyl)-1-methyl-urea]	100
Cc1cc(C(=O)N2CCC(O)CC2)cc(C)c1CCS(=O)(=O)N1CCC2(CC1)N=C(c1ccc(F)c(OC(F)(F)F)c1)NC2=O [Compound 1334, 2-(4-fluoro-3-trifluoromethoxy-phenyl)-8-{2-[4-(4-hydroxy-piperidine-1-carbonyl)-2,6-dimethyl-phenyl]-ethanesulfonyl}-1,3,8-triaza-spiro[4.5]dec-1-en-4-one]	116
Cc1cc(N2C(=O)NC(C)(C)C2=O)cc(C)c1/C=C/S(=O)(=O)N1CCC2(CC1)N=C(c1cccc(OC(F)(F)F)c1)NC2=O [Compound 615, 3-(3,5-dimethyl-4-{(E)-2-[4-oxo-2-(3-trifluoromethoxy-phenyl)-1,3,8-triaza-spiro[4.5]dec-1-ene-8-sulfonyl]-vinyl}-phenyl)-5,5-dimethyl-imidazolidine-2,4-dione]	46
COC(=O)Nc1ccc(C)c(/C=C/S(=O)(=O)N2CCC3(CC2)N=C(C2CCCCC2)NC3=O)c1 [Compound 197, {3-[(E)-2-(2-cyclohexyl-4-oxo-1,3,8-triaza-spiro[4.5]dec-1-ene-8-sulfonyl)-vinyl]-4-methyl-phenyl}-carbamic acid methyl ester]	41
CC(=O)NNC(=O)c1cc(C)c(/C=C/S(=O)(=O)N2CCC3(CC2)N=C(C2CCC(CCC(F)(F)F)CC2)NC3=O)c(C)c1 (stereo not shown) [Compound 552, 3,5-dimethyl-4-((E)-2-{4-oxo-2-[4-(3,3,3-trifluoro-propyl)-cyclohexyl]-1,3,8-triaza-spiro[4.5]dec-1-ene-8-sulfonyl}-vinyl)-benzoic acid N′-acetyl-hydrazide]	64
Cc1cc(C(=O)N2CCC(O)(CF)CC2)cc(C)c1/C=C/S(=O)(=O)N1CCC2(CC1)N=C(c1ccc(F)c(C)c1C)NC2=O [Compound 1240, 2-(4-fluoro-2,3-dimethyl-phenyl)-8-{(E)-2-[4-(4-fluoromethyl-4-hydroxy-piperidine-1-carbonyl)-2,6-dimethyl-phenyl]-ethenesulfonyl}-1,3,8-triaza-spiro[4.5]dec-1-en-4-one]	95
Cc1cc(C(=O)N2CCC(O)(CF)CC2)cc(C)c1/C=C/S(=O)(=O)N1CCC2(CC1)N=C(c1cccc(C(F)(F)C(F)(F)F)c1)NC2=O [Compound 1243, 8-{(E)-2-[4-(4-fluoromethyl-4-hydroxy-piperidine-1-carbonyl)-2,6-dimethyl-phenyl]-ethenesulfonyl}-2-(3-pentafluoroethyl-phenyl)-1,3,8-triaza-spiro[4.5]dec-1-en-4-one]	77
O=C1NC(C2CCCCC2)=NC12CCN(S(=O)(=O)c1cccc3ccccc13)CC2 [Compound 57, 2-cyclohexyl-8-(naphthalene-1-sulfonyl)-1,3,8-triaza-spiro[4.5]dec-1-en-4-one]	35
Cc1cc(N(C)C(N)=O)cc(C)c1CCS(=O)(=O)N1CCC2(CC1)N=C(C(F)CCCCCCCC(F)(F)F)NC2=O (stereo not shown) [Compound 1151, 1-(3,5-Dimethyl-4-{2-[4-oxo-2-(1,9,9,9-tetrafluoro-nonyl)-1,3,8-triaza-spiro[4.5]dec-1-ene-8-sulfonyl]-ethyl}-phenyl)-1-methyl-urea]	105
Cc1cc(N(C)C(N)=O)cc(C)c1CCS(=O)(=O)N1CCC2(CC1)N=C(C1CCC(CCC(F)(F)F)CC1)NC2=O (stereo not shown) [Compound 696, 1-[3,5-Dimethyl-4-(2-{4-oxo-2-[4-(3,3,3-trifluoro-propyl)-cyclohexyl]-1,3,8-triaza-spiro[4.5]dec-1-ene-8-sulfonyl}-ethyl)-phenyl]-1-methyl-urea]	132
CC(=O)N(CCOCCO)c1cc(C)c(CCS(=O)(=O)N2CCC3(CC2)N=C(C2CCC(CCC(F)(F)F)CC2)NC3=O)c(C)c1 (stereo not shown) [Compound 820, N-[3,5-dimethyl-4-(2-{4-oxo-2-[4-(3,3,3-trifluoro-propyl)-cyclohexyl]-1,3,8-triaza-spiro[4.5]dec-1-ene-8-sulfonyl}-ethyl)-phenyl]-N-[2-(2-hydroxy-ethoxy)-ethyl]-acetamide]	98
CCCC=C1CCC(C2=NC3(CCN(S(=O)(=O)CCc4ccc(NC(C)=O)cc4C)CC3)C(=O)N2)CC1 (stereo not shown) [Compound 1079, N-(4-{2-[2-(4-Butylidene-cyclohexyl)-4-oxo-1,3,8-triaza-spiro[4.5]dec-1-ene-8-sulfonyl]-ethyl}-3-methyl-phenyl)-acetamide]	91
CCCCCC#CCCC1=NC2(CCN([S@TB17](=O)(=O)CCc3c(C)cc(N(C)C(N)=O)cc3C)CC2)C(=O)N1 [Compound 1082, 1-{3,5-dimethyl-4-[2-(2-non-3-ynyl-4-oxo-1,3,8-triaza-spiro[4.5]dec-1-ene-8-sulfonyl)-ethyl]-phenyl}-1-methyl-urea]	22
CCCCCCCCCC1=NC2(CCN(S(=O)(=O)CCc3ccc(N4C(=O)CNC4=O)cc3C)CC2)C(=O)N1 [Compound 790, 3-{3-methyl-4-[2-(2-nonyl-4-oxo-1,3,8-triaza-spiro[4.5]dec-1-ene-8-sulfonyl)-ethyl]-phenyl}-imidazolidine-2,4-dione]	88
Cc1cc(S(=O)(=O)NCCN2CCOCC2)ccc1/C=C/S(=O)(=O)N1CCC2(CC1)N=C(c1cccc(C(F)(F)F)c1)NC2=O [Compound 218, 3-methyl-N-(2-morpholin-4-yl-ethyl)-4-{(E)-2-[4-oxo-2-(3-trifluoromethyl-phenyl)-1,3,8-triaza-spiro[4.5]dec-1-ene-8-sulfonyl]-vinyl}-benzenesulfonamide]	72
Cc1cc(N(C)C(N)=O)cc(C)c1CCS(=O)(=O)N1CCC2(CC1)N=C(c1cccc(OC(F)(F)C(F)F)c1)NC2=O [Compound 1038, 1-[3,5-Dimethyl-4-(2-{4-oxo-2-[3-(1,1,2,2-tetrafluoro-ethoxy)-phenyl]-1,3,8-triaza-spiro[4.5]dec-1-ene-8-sulfonyl}-ethyl)-phenyl]-1-methyl-urea]	111
Cc1cc(C(=O)N2CCC(C)(O)CC2)cc(C)c1/C=C/S(=O)(=O)N1CCC2(CC1)N=C(c1cccc(COc3cccc(C(F)(F)F)c3)c1)NC2=O [Compound 1205, 8-{(E)-2-[4-(4-hydroxy-4-methyl-piperidine-1-carbonyl)-2,6-dimethyl-phenyl]-ethenesulfonyl}-2-[3-(3-trifluoromethyl-phenoxymethyl)-phenyl]-1,3,8-triaza-spiro[4.5]dec-1-en-4-one]	83
Cc1cc(N(C)C(N)=O)cc(C)c1CCS(=O)(=O)N1CCC2(CC1)N=C(CCCCCCCCCO)NC2=O [Compound 1322, 1-(4-{2-[2-(9-Hydroxy-nonyl)-4-oxo-1,3,8-triaza-spiro[4.5]dec-1-ene-8-sulfonyl]-ethyl}-3,5-dimethyl-phenyl)-1-methyl-urea]	80
O=C1NC(C2CCCCC2)=NC12CCN(S(=O)(=O)CCc1csc3ccccc13)CC2 [Compound 319, 8-(2-benzo[b]thiophen-3-yl-ethanesulfonyl)-2-cyclohexyl-1,3,8-triaza-spiro[4.5]dec-1-en-4-one]	31
